Structures can show the parent of a compound that is named as a salt.
Experiments:
Settings in all cases: exposure time: 72 h
[1] = test system: E34 (patient-derived glioblastoma stem cells of proneural subtype); assay: phenotypic distance (Euclidean, principal components) from DMSO controls (arbitrary units); higher = stronger morphological change
[2] = test system: E21 (patient-derived glioblastoma stem cells of mesenchymal subtype); assay: as above
[3] = test system: FT3469 (normal neural stem cell line); assay: as above
[4] = test system: E57 (patient-derived glioblastoma stem cells of mesenchymal subtype); assay: as above
[5] = test system: E31 (patient-derived glioblastoma stem cells of proneural subtype); assay: as above
[6] = test system: E13 (patient-derived glioblastoma stem cells of classical subtype); assay: as above
[7] = test system: E28 (patient-derived glioblastoma stem cells of classical subtype); assay: as above
[8] = test system: E34; assay: surviving fraction (nuclei count normalised to DMSO); higher = more cells surviving (less toxic)
[9] = test system: E21; assay: as above
[10] = test system: FT3469; assay: as above
[11] = test system: E57; assay: as above
[12] = test system: E31; assay: as above
[13] = test system: E13; assay: as above
[14] = test system: E28; assay: as above
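Throughout, for phenotypic distance (Euclidean, principal components) from DMSO controls: cell Painting imaging in 384-well plates, CellProfiler features reduced to at least 20 principal components, Euclidean distance versus same-plate DMSO vehicle wells (0.1% v/v), median over six images per well.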
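Throughout, for surviving fraction (nuclei count normalised to DMSO): nuclei counted by high-content imaging of Hoechst-stained cells in laminin-coated 384-well plates, relative to 0.1% DMSO vehicle wells, with staurosporine as cell-death control.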

Nc1ncn(C2OC(CO)C(O)C2O)c(=O)n1 (centres undefined) [Azacytidine-5]
Settings	phenotypic distance	surviving fraction
[1], 4.1 nM	0.787	–
[1], 12.3 nM	0.546	–
[1], 37 nM	0.387	–
[1], 111.1 nM	0.835	–
[1], 333.3 nM	0.732	–
[1], 1000 nM	0.672	–
[1], 3000 nM	1.24	–
[2], 4.1 nM	1.45	–
[2], 12.3 nM	0.512	–
[2], 37 nM	0.843	–
[2], 111.1 nM	1.36	–
[2], 333.3 nM	1.28	–
[2], 1000 nM	1.92	–
[2], 3000 nM	2.82	–
[3], 4.1 nM	0.816	–
[3], 12.3 nM	0.612	–
[3], 37 nM	0.486	–
[3], 111.1 nM	1.17	–
[3], 333.3 nM	0.757	–
[3], 1000 nM	0.865	–
[3], 3000 nM	1.77	–
[4], 4.1 nM	0.265	–
[4], 12.3 nM	1.15	–
[4], 37 nM	0.6	–
[4], 111.1 nM	0.593	–
[4], 333.3 nM	1.38	–
[4], 1000 nM	2.03	–
[4], 3000 nM	3.86	–
[5], 4.1 nM	0.548	–
[5], 12.3 nM	0.901	–
[5], 37 nM	0.564	–
[5], 111.1 nM	0.874	–
[5], 333.3 nM	1.27	–
[5], 1000 nM	1.11	–
[5], 3000 nM	2.48	–
[6], 4.1 nM	0.774	–
[6], 12.3 nM	0.925	–
[6], 37 nM	0.631	–
[6], 111.1 nM	1.16	–
[6], 333.3 nM	1.01	–
[6], 1000 nM	2.56	–
[6], 3000 nM	4.39	–
[7], 4.1 nM	0.577	–
[7], 12.3 nM	0.65	–
[7], 37 nM	0.956	–
[7], 111.1 nM	0.825	–
[7], 333.3 nM	3.86	–
[7], 1000 nM	0.76	–
[7], 3000 nM	1.01	–
[8], 4.1 nM	–	0.935
[8], 12.3 nM	–	0.979
[8], 37 nM	–	0.89
[8], 111.1 nM	–	1.09
[8], 333.3 nM	–	1.04
[8], 1000 nM	–	0.914
[8], 3000 nM	–	0.858
[9], 4.1 nM	–	0.945
[9], 12.3 nM	–	0.932
[9], 37 nM	–	1.07
[9], 111.1 nM	–	0.892
[9], 333.3 nM	–	0.978
[9], 1000 nM	–	0.779
[9], 3000 nM	–	0.634
[10], 4.1 nM	–	0.953
[10], 12.3 nM	–	1
[10], 37 nM	–	1.1
[10], 111.1 nM	–	0.935
[10], 333.3 nM	–	0.809
[10], 1000 nM	–	1.04
[10], 3000 nM	–	0.906
[11], 4.1 nM	–	0.979
[11], 12.3 nM	–	1.09
[11], 37 nM	–	0.948
[11], 111.1 nM	–	0.974
[11], 333.3 nM	–	0.859
[11], 1000 nM	–	0.702
[11], 3000 nM	–	0.411
[12], 4.1 nM	–	0.962
[12], 12.3 nM	–	0.827
[12], 37 nM	–	0.96
[12], 111.1 nM	–	0.986
[12], 333.3 nM	–	1.04
[12], 1000 nM	–	0.731
[12], 3000 nM	–	0.439
[13], 4.1 nM	–	0.948
[13], 12.3 nM	–	0.902
[13], 37 nM	–	0.957
[13], 111.1 nM	–	1
[13], 333.3 nM	–	1.01
[13], 1000 nM	–	0.894
[13], 3000 nM	–	0.634
[14], 4.1 nM	–	0.969
[14], 12.3 nM	–	1.09
[14], 37 nM	–	0.969
[14], 111.1 nM	–	1.1
[14], 333.3 nM	–	0.952
[14], 1000 nM	–	1.15
[14], 3000 nM	–	0.764

Nc1nc2n[nH]nc2c(=O)[nH]1 [Azaguanine-8]
Settings	phenotypic distance	surviving fraction
[1], 4.1 nM	0.455	–
[1], 12.3 nM	0.707	–
[1], 37 nM	0.662	–
[1], 111.1 nM	0.809	–
[1], 333.3 nM	1.12	–
[1], 1000 nM	2.2	–
[1], 3000 nM	3.18	–
[2], 4.1 nM	0.646	–
[2], 12.3 nM	1.28	–
[2], 37 nM	1.04	–
[2], 111.1 nM	1.87	–
[2], 333.3 nM	3.3	–
[2], 1000 nM	4.9	–
[2], 3000 nM	7.15	–
[3], 4.1 nM	0.821	–
[3], 12.3 nM	1.13	–
[3], 37 nM	0.941	–
[3], 111.1 nM	1.28	–
[3], 333.3 nM	1.37	–
[3], 1000 nM	1.95	–
[3], 3000 nM	2.95	–
[4], 4.1 nM	0.712	–
[4], 12.3 nM	0.801	–
[4], 37 nM	1.2	–
[4], 111.1 nM	1.96	–
[4], 333.3 nM	3.18	–
[4], 1000 nM	5.55	–
[4], 3000 nM	6.09	–
[5], 4.1 nM	1.03	–
[5], 12.3 nM	0.622	–
[5], 37 nM	0.999	–
[5], 111.1 nM	1.08	–
[5], 333.3 nM	1.4	–
[5], 1000 nM	2.35	–
[5], 3000 nM	5.2	–
[6], 4.1 nM	0.737	–
[6], 12.3 nM	0.508	–
[6], 37 nM	1.23	–
[6], 111.1 nM	0.95	–
[6], 333.3 nM	2.46	–
[6], 1000 nM	2.82	–
[6], 3000 nM	5.02	–
[7], 4.1 nM	0.671	–
[7], 12.3 nM	0.89	–
[7], 37 nM	1	–
[7], 111.1 nM	0.848	–
[7], 333.3 nM	1.21	–
[7], 1000 nM	1.81	–
[7], 3000 nM	3.73	–
[8], 4.1 nM	–	0.988
[8], 12.3 nM	–	0.839
[8], 37 nM	–	0.913
[8], 111.1 nM	–	0.939
[8], 333.3 nM	–	0.795
[8], 1000 nM	–	0.601
[8], 3000 nM	–	0.563
[9], 4.1 nM	–	0.917
[9], 12.3 nM	–	1.06
[9], 37 nM	–	0.788
[9], 111.1 nM	–	0.68
[9], 333.3 nM	–	0.489
[9], 1000 nM	–	0.429
[9], 3000 nM	–	0.296
[10], 4.1 nM	–	0.958
[10], 12.3 nM	–	1.15
[10], 37 nM	–	1.2
[10], 111.1 nM	–	0.987
[10], 333.3 nM	–	0.881
[10], 1000 nM	–	0.685
[10], 3000 nM	–	0.59
[11], 4.1 nM	–	1
[11], 12.3 nM	–	0.873
[11], 37 nM	–	0.831
[11], 111.1 nM	–	0.605
[11], 333.3 nM	–	0.459
[11], 1000 nM	–	0.271
[11], 3000 nM	–	0.22
[12], 4.1 nM	–	0.825
[12], 12.3 nM	–	0.941
[12], 37 nM	–	1.07
[12], 111.1 nM	–	0.654
[12], 333.3 nM	–	0.48
[12], 1000 nM	–	0.225
[12], 3000 nM	–	0.0814
[13], 4.1 nM	–	0.918
[13], 12.3 nM	–	1.02
[13], 37 nM	–	1.08
[13], 111.1 nM	–	0.87
[13], 333.3 nM	–	0.559
[13], 1000 nM	–	0.581
[13], 3000 nM	–	0.307
[14], 4.1 nM	–	1.08
[14], 12.3 nM	–	1.11
[14], 37 nM	–	1.14
[14], 111.1 nM	–	0.882
[14], 333.3 nM	–	0.664
[14], 1000 nM	–	0.574
[14], 3000 nM	–	0.292

CCOC(=O)OC(C)OC(=O)[C@@H]1N2C(=O)[C@@H](NC(=O)[C@H](N)c3ccccc3)[C@H]2SC1(C)C (some centres undefined) [Bacampicillin hydrochloride]
Settings	phenotypic distance	surviving fraction
[1], 4.1 nM	0.569	–
[1], 12.3 nM	0.614	–
[1], 37 nM	0.651	–
[1], 111.1 nM	0.507	–
[1], 333.3 nM	1.28	–
[1], 1000 nM	0.329	–
[1], 3000 nM	1.06	–
[2], 4.1 nM	0.814	–
[2], 12.3 nM	0.643	–
[2], 37 nM	1.05	–
[2], 111.1 nM	0.376	–
[2], 333.3 nM	0.776	–
[2], 1000 nM	0.7	–
[2], 3000 nM	0.853	–
[3], 4.1 nM	0.697	–
[3], 12.3 nM	0.387	–
[3], 37 nM	0.735	–
[3], 111.1 nM	0.551	–
[3], 333.3 nM	0.433	–
[3], 1000 nM	0.827	–
[3], 3000 nM	0.96	–
[4], 4.1 nM	0.537	–
[4], 12.3 nM	1.07	–
[4], 37 nM	0.681	–
[4], 111.1 nM	0.754	–
[4], 333.3 nM	0.45	–
[4], 1000 nM	0.576	–
[4], 3000 nM	0.604	–
[5], 4.1 nM	0.89	–
[5], 12.3 nM	0.639	–
[5], 37 nM	0.836	–
[5], 111.1 nM	0.578	–
[5], 333.3 nM	0.932	–
[5], 1000 nM	0.697	–
[5], 3000 nM	0.565	–
[6], 4.1 nM	0.65	–
[6], 12.3 nM	1.12	–
[6], 37 nM	0.975	–
[6], 111.1 nM	0.635	–
[6], 333.3 nM	0.439	–
[6], 1000 nM	0.698	–
[6], 3000 nM	0.628	–
[7], 4.1 nM	0.82	–
[7], 12.3 nM	0.789	–
[7], 37 nM	1.1	–
[7], 111.1 nM	0.421	–
[7], 333.3 nM	0.781	–
[7], 1000 nM	0.904	–
[7], 3000 nM	0.881	–
[8], 4.1 nM	–	0.918
[8], 12.3 nM	–	1.02
[8], 37 nM	–	0.858
[8], 111.1 nM	–	0.934
[8], 333.3 nM	–	1.25
[8], 1000 nM	–	1.05
[8], 3000 nM	–	1.07
[9], 4.1 nM	–	0.982
[9], 12.3 nM	–	1.01
[9], 37 nM	–	1.09
[9], 111.1 nM	–	1.01
[9], 333.3 nM	–	1
[9], 1000 nM	–	0.914
[9], 3000 nM	–	1.06
[10], 4.1 nM	–	0.909
[10], 12.3 nM	–	0.875
[10], 37 nM	–	1.05
[10], 111.1 nM	–	0.978
[10], 333.3 nM	–	1.03
[10], 1000 nM	–	1.05
[10], 3000 nM	–	0.858
[11], 4.1 nM	–	0.987
[11], 12.3 nM	–	1.09
[11], 37 nM	–	0.961
[11], 111.1 nM	–	1.03
[11], 333.3 nM	–	0.926
[11], 1000 nM	–	0.97
[11], 3000 nM	–	0.956
[12], 4.1 nM	–	0.986
[12], 12.3 nM	–	0.807
[12], 37 nM	–	0.871
[12], 111.1 nM	–	0.941
[12], 333.3 nM	–	1
[12], 1000 nM	–	0.965
[12], 3000 nM	–	1.1
[13], 4.1 nM	–	0.878
[13], 12.3 nM	–	0.951
[13], 37 nM	–	1.03
[13], 111.1 nM	–	0.813
[13], 333.3 nM	–	1
[13], 1000 nM	–	1.04
[13], 3000 nM	–	1.11
[14], 4.1 nM	–	0.882
[14], 12.3 nM	–	0.993
[14], 37 nM	–	1.09
[14], 111.1 nM	–	1.19
[14], 333.3 nM	–	0.997
[14], 1000 nM	–	1.15
[14], 3000 nM	–	1.06
